Measured values reported in patent US20240148821A1, “PHARMACEUTICAL USE OF CYCLIC PEPTIDE COMPOUND” (CHUGAI SEIYAKU KABUSHIKI KAISHA, priority 2021, published 2024).
Bridge positions count the residues as written; N and C are the ends. Square brackets hold non-standard residues; d marks the D form. Peptide text beside a SMILES is read from it. * marks the point of attachment. hPhe(3-Cl-4-CF3) = N[C@@H](CCc1ccc(C(F)(F)F)c(Cl)c1)C(=O)O; NMePhe(3-Cl) = CN[C@@H](Cc1cccc(Cl)c1)C(=O)O; NMeMet(O2) = CN[C@@H](CCS(C)(=O)=O)C(=O)O; Abu(4,4,4-F3) = N[C@@H](CC(F)(F)F)C(=O)O; NMeGly(cPent) = CN[C@H](C(=O)O)C1CCCC1; Phe(3-I) = N[C@@H](Cc1cccc(I)c1)C(=O)O; Phe(4-F) = N[C@@H](Cc1ccc(F)cc1)C(=O)O; NMeCha = CN[C@@H](CC1CCCCC1)C(=O)O; NMeChg = CN[C@H](C(=O)O)C1CCCCC1; NMeD = CN[C@@H](CC(=O)O)C(=O)O; NMeL = CN[C@@H](CC(C)C)C(=O)O; NMeV = CN[C@H](C(=O)O)C(C)C; d(β3hA) = C[C@@H](N)CC(=O)O; NMeS = CN[C@@H](CO)C(=O)O; NMeA = CN[C@@H](C)C(=O)O; NMeAib = CNC(C)(C)C(=O)O; Piperidide = C1CCN(*)CC1; Pyrrolidide = C1CCN(*)C1; Ac5c = NC1(C(=O)O)CCCC1; Aze = O=C(O)[C@@H]1CCN1; CH2CMe2OH = CC(C)(O)C*; Aib = CC(C)(N)C(=O)O; Isopentyl = CC(C)CC*; NEtG = CCNCC(=O)O; Sar = CNCC(=O)O

System: Human pancreatic cancer cell line AsPC-1 (G12D mutation Kras)
Assay: AsPC-1 cell growth inhibition (AsPC-1 CGI)
Type: cell-based
Conditions: read-out: AsPC-1 cell growth inhibition, 50% growth inhibitory concentration (IC50 value); 96 hours, CellTiter-Glo, values classified in ranges
Method: Test compounds were serially dilated with dimethyl sulfoxide, and 200 nL was then dispensed to a U-bottom 96-well plate using Labcyte Echo. […] The cell suspension was dispensed to a. plate containing a test compound at 100 μL per well and incubated at 37° C. in a 5% carbon dioxide gas incubator. 96 hours later, 80 μL of CellTiter-Glo (Promega) was added to each well and fluorescence was measured.

Question: How did the IC50 turn out when CC[C@H](C)[C@@H]1NC(=O)[C@H](CC(C)C)N(C)C(=O)C[C@@H](C(=O)N2CCCCC2)N(C)C(=O)[C@H](C2CCCCC2)N(C)C(=O)C2(CCCC2)NC(=O)[C@@H]2CCCN2C(=O)[C@H](CCc2ccc(C(F)(F)F)c(Cl)c2)NC(=O)CN(C)C(=O)[C@H](C)N(C)C(=O)CN(C)C(=O)CN(C)C1=O [Compound 1681] ([NMeL]I[Sar][Sar][NMeA][Sar][hPhe(3-Cl-4-CF3)]P[Ac5c][NMeChg][NMeD]-Piperidide; lactam N-11) was run?
Answer: The IC50 was > 0.5 µM.

Question: CC[C@H](C)[C@@H]1NC(=O)[C@H](CC(C)C)N(C)C(=O)C[C@@H](C(=O)N2CCCC2)NC(=O)[C@H](C(C)C)N(C)C(=O)C2(CCCC2)NC(=O)[C@@H]2CCCN2C(=O)[C@H](CCc2ccc(C(F)(F)F)c(Cl)c2)NC(=O)CN(C)C(=O)[C@H](CC2CCCCC2)N(C)C(=O)CN(C)C(=O)CN(C)C1=O [Compound 508] ([NMeL]I[Sar][Sar][NMeCha][Sar][hPhe(3-Cl-4-CF3)]P[Ac5c][NMeV]D-Pyrrolidide; lactam N-11) was tested. Which IC50 did it give?
Answer: Its IC50 is > 0.5 µM.

Question: For CC[C@H](C)[C@@H]1NC(=O)[C@H](CC(C)C)N(C)C(=O)C[C@@H](C(=O)N2CCCCC2)N(C)C(=O)[C@H](CCS(C)(=O)=O)N(C)C(=O)C2(CCCC2)NC(=O)[C@@H]2CCCN2C(=O)[C@H](CCc2ccc(C(F)(F)F)c(Cl)c2)NC(=O)CN(C)C(=O)[C@H](CC2CCCCC2)N(C)C(=O)CN(C)C(=O)CN(C)C1=O [Compound 162] ([NMeL]I[Sar][Sar][NMeCha][Sar][hPhe(3-Cl-4-CF3)]P[Ac5c][NMeMet(O2)][NMeD]-Piperidide; lactam N-11), which IC50 is on record?
Answer: Its IC50 is > 0.5 µM.

Question: CC[C@H](C)[C@@H]1NC(=O)[C@H](CC(C)C)N(C)C(=O)C[C@@H](C)NC(=O)[C@H](CC(C)C)N(C)C(=O)C(C)(C)NC(=O)[C@H](COCC(C)(C)O)N(C)C(=O)[C@H](CCc2ccc(C(F)(F)F)c(Cl)c2)NC(=O)CN(C)C(=O)[C@H](COCCC(C)C)N(C)C(=O)CN(CC)C(=O)CN(C)C1=O [Compound 1484] (cyclo([Aib][NMeL][d(β3hA)][NMeL]I[Sar][NEtG][NMeS](Isopentyl)[Sar][hPhe(3-Cl-4-CF3)][NMeS](CH2CMe2OH))) was tested. Which IC50 did it give?
Answer: The IC50 was > 0.5 µM.

Question: How did the IC50 turn out when CC[C@H](C)[C@@H]1NC(=O)[C@H](CC(C)C)N(C)C(=O)C[C@@H](C(=O)N(C)C)N(C)C(=O)[C@H](C2CCCC2)N(C)C(=O)C2(CCCC2)NC(=O)[C@@H]2CCCN2C(=O)[C@H](CCc2ccc(C(F)(F)F)c(Cl)c2)NC(=O)CN(C)C(=O)[C@H](CC2CCCCC2)N(C)C(=O)CN(C)C(=O)CN(C)C1=O [Compound 1659] ([NMeL]I[Sar][Sar][NMeCha][Sar][hPhe(3-Cl-4-CF3)]P[Ac5c][NMeGly(cPent)][NMeD]-NMe2; lactam N-11) was run?
Answer: Its IC50 is ≤ 0.02 µM.

Question: Which IC50 does the source give for CC(C)C[C@H]1C(=O)N[C@@H](CC(F)(F)F)C(=O)N(C)[C@@H](C)C(=O)N2CC[C@H]2C(=O)N(C)[C@@H](CC2CCCCC2)C(=O)N(C)CC(=O)N[C@@H](CCc2ccc(C(F)(F)F)c(Cl)c2)C(=O)N2CCC[C@H]2C(=O)NC2(CCCC2)C(=O)N(C)[C@@H](C(C)C)C(=O)N(C)[C@H](C(=O)N2CCCCC2)CC(=O)N1C [Compound 1864] ([NMeL][Abu(4,4,4-F3)][NMeA][Aze][NMeCha][Sar][hPhe(3-Cl-4-CF3)]P[Ac5c][NMeV][NMeD]-Piperidide; lactam N-11) here?
Answer: The IC50 was > 0.5 µM.

Question: CC[C@H](C)[C@@H]1NC(=O)[C@H](CC(C)C)N(C)C(=O)C[C@@H](C(=O)N(C)C)N(C)C(=O)[C@H](C2CCCC2)N(C)C(=O)C2(CCCC2)NC(=O)[C@H](Cc2cccc(Cl)c2)N(C)C(=O)[C@H](CCc2ccc(C(F)(F)F)c(Cl)c2)NC(=O)CN(C)C(=O)[C@H](CC2CCCCC2)N(C)C(=O)[C@@H]2CCN2C(=O)[C@H](C)N(C)C1=O [Compound 179] ([NMeL]I[NMeA][Aze][NMeCha][Sar][hPhe(3-Cl-4-CF3)][NMePhe(3-Cl)][Ac5c][NMeGly(cPent)][NMeD]-NMe2; lactam N-11) was tested. Which IC50 did it give?
Answer: The IC50 was > 0.5 µM.

Question: For CC[C@H](C)[C@@H]1NC(=O)[C@H](CC(C)C)N(C)C(=O)C[C@@H](C)NC(=O)[C@H](C(C)C)N(C)C(=O)C2(CCCC2)NC(=O)[C@@H]2CCCN2C(=O)[C@H](CCc2ccc(C(F)(F)F)c(Cl)c2)NC(=O)CN(C)C(=O)[C@H](CC2CCCCC2)N(C)C(=O)CN(C)C(=O)[C@@H]2CCN2C1=O [Compound 1020] (cyclo([Ac5c][NMeV][d(β3hA)][NMeL]I[Aze][Sar][NMeCha][Sar][hPhe(3-Cl-4-CF3)]P)), which IC50 is on record?
Answer: The IC50 was > 0.5 µM.

Question: CC[C@H](C)[C@@H]1NC(=O)[C@H](CC(C)C)N(C)C(=O)C[C@@H](C(=O)N2CCCCC2)N(C)C(=O)[C@H](CC(C)C)NC(=O)C(C)(C)N(C)C(=O)[C@H](Cc2ccc(F)cc2)NC(=O)[C@H](Cc2cccc(I)c2)NC(=O)CN(C)C(=O)[C@H](CC2CCCCC2)N(C)C(=O)CN(C)C(=O)CN(C)C1=O [Compound 711] ([NMeL]I[Sar][Sar][NMeCha][Sar][Phe(3-I)][Phe(4-F)][NMeAib]L[NMeD]-Piperidide; lactam N-11) was tested. Which IC50 did it give?
Answer: The IC50 was > 0.5 µM.
